Results: US11236052B2, “Aminobenzimidazole derivatives, treatments, and methods of inhibiting histone deacetylase” (TRANSLATIONAL DRUG DEVELOPMENT, LLC, priority 2017, dated 2022)
Like-named read-outs stand apart in the source and are kept apart here.

Experiments:
[1] = Pharmacokinetic studies in the mouse; assay type: in vivo; conditions: for Vd: read-out: Vss; for Vd/F: read-out: Vz/F obs
Method: Plasma samples were collected from healthy mice and analyzed for levels of compound ID #1, ID #2, and ID #3 and reported in Table 5. In brief, compounds were individually and accurately weighed out to produce a stock solution in Dimethyl-sulfoxide (DMSO) at a concentration of 2 mg/mL and stored at −20° C. From the stock solution, a working stock was prepared by diluting it in Methanol-Water 50:50 (v/v) at 20 μg/mL for calibration curve preparation and stored at 4° C. Standards used for quantitation and quality control samples (QC's) were prepared on the same day of sample processing using blank plasma obtained from non-treated mice. For each analyte, standards were prepared through serial dilution of the working stock at concentrations of 0.1, 0.5, 1.0, 10, 50, 100, 500 and 1000 ng/mL; QC's were prepared at intermediate concentrations of 0.75, 7.5, 75 and 750 ng/mL. Plasma samples were stored at −80° C. until ready for analysis and then placed on ice for thawing. An aliquot of 20 μL for samples, standards and QC's, were transferred into a 96-well extraction plate according to a pre-defined layout. Appropriate volume of Methanol-Formic Acid 99.9-0.1 containing internal standard (Verapamil at 25 ng/mL) was added to each well and samples were extracted under vacuum. Eluent was then transferred into a LCMS plate for analysis using a suitable column for separation and MRM detection. Concentration of analytes was calculated based on the calibration curve and analyzed for pharmacokinetic parameters by using Non-compartmental analysis (NCA) using WinNonlin Phoenix software. Parameters such as Cmax, Tmax, half-life, AUC(0-last), AUC(0-∞), volume of distribution (Vss) and clearance (Cl/F) were reported.
The analogs were tested for pharmacokinetic analysis in the mouse with doses of 1 mg/kg for intravenous (IV) route and 5 mg/kg for oral (P0) route. […] Overall exposure following IV dose also favored compound ID #1 with AUCO-∞ 1488.1 hr*ng/mL whereas compound ID #2 and ID #3 were 329.1 and 1193.7 hr*ng/mL, respectively.

MCF7 = test: CellTiter-Glo cell viability assay, MCF7; assay type: cell-based; conditions: Breast; for IC50: Homo sapiens, MCF7, 72 hours
Method: (§1) Cell Viability Assay—Cell viability was measured by the CellTiter-Glo® cell viability assay Promega (Madison, Wis.). The CellTiter-Glo® Luminescent Cell Viability Assay is a homogeneous method to determine the number of viable cells in culture based on quantitation of the ATP present, which signals the presence of metabolically active cells. Following treatment, CellTiter-Glo® is added to treatment wells and incubated at 37° C. luminescence values were measured at using a Molecular Devices Spectramax microplate reader.
(§2) Single Agent Studies—Cells were grown to 70% confluency, trypsinized, counted, and seeded in 96 well flat-bottom plates at a final concentration of 2.5×10^3-5×10^3 cells/well (Day 0). Cells were allowed to incubate in growth media for 24 hours. Treatment with the test agents began on Day 1 and continued for 72 hours. At the 72-hour time point, treatment-containing media was removed. Viable cell numbers are quantified by the CellTiter-Glo® cell viability assay as described above. Experiments were run with triplicate concentrations to determine growth inhibitory activity. Results from these studies were used to calculate an IC50 value (concentration of drug that inhibits cell growth by 50 percent of control) for each compound.
(§3) Data Collection—For single agent and combination studies, data from each experiment was collected and expressed as % Cell Growth using the following calculation: % Cell Growth=(ftest/fvehicle)×100
(§4) Where ftest is the luminescence of the tested sample, and fvehicle is the luminescence of the vehicle in which the drug is dissolved. Dose response graphs and IC50 values were generated using Prism 6 software (GraphPad).

KMS-34 = test: CellTiter-Glo cell viability assay, KMS-34; assay type: cell-based; conditions: Myeloma; for IC50: KMS-34, 72 hours
Method: as §1, §2, §3, §4

MM1.S cells = test: CellTiter-Glo cell viability assay, MM1.S cells; assay type: cell-based, human; conditions: for IC50: Homo sapiens
Method: Cell viability in the presence of varying concentrations of the above listed compounds at different time points was used to assess cytotoxicity and the effect of the compounds on cell proliferation.
Cell Viability Assay—Cell viability was measured by the CellTiter-GlO® cell viability assay from Promega (Madison, Wis.). The CellTiter-GlO® Luminescent Cell Viability Assay is a homogeneous method to determine the number of viable cells in culture based on quantitation of the ATP present, which signals the presence of metabolically active cells. Following treatment, CellTiter-GlO® is added to treatment wells and incubated at 37° C. luminescence values were measured at using a Molecular Devices Spectramax microplate reader
as §2, with “agents or standard agents” for “agents”, “72 hour timepoint, treatment containing” for “72-hour time point, treatment-containing”, “CellTiter-GlO®” for “CellTiter-Glo®”, “above.” for “above. Experiments were run with triplicate concentrations to determine growth inhibitory activity.”
Data Collection—For single agent and combination studies, data from each experiment was collected and expressed as % Cell Growth using the following calculation: Cell Growth=(ftest/fvehicle)×100
Where ftest is the fluorescence of the tested sample, and fvehicle is the fluorescence of the vehicle in which the drug is dissolved. Dose response graphs and IC50 values were generated using Prism 6 software (GraphPad) using the following equation: […]
Where X is the logarithm of concentration and Y is the response. Y starts at the Bottom and goes to Top with a sigmoid shape.
as §1, §2, §3, §4

SKUT-1B = test: CellTiter-Glo cell viability assay, SKUT-1B; assay type: cell-based; conditions: Uterine; for IC50: Homo sapiens, Skut1B, 72 hours
Method: as §1, §2, §3, §4

H460 = test: CellTiter-Glo cell viability assay, H460; assay type: cell-based; conditions: NSCLC; for IC50: Homo sapiens, NCI-H460, H460, 72 hours
Method: as §1, §2, §3, §4

[2] = plasma, 1.0 mg/kg IV, read-out: Half-life (converted)
[3] = plasma, 5.0 mg/kg PO, read-out: Half-life (converted)
[4] = plasma, iv, 1 mg/kg, 1.0 mg/kg IV, read-out: AUC0-∞
[5] = plasma, iv, 1 mg/kg, 1.0 mg/kg IV, read-out: Cmax
[6] = plasma, po, 5 mg/kg, 5.0 mg/kg PO, read-out: AUC0-∞
[7] = plasma, po, 5 mg/kg, 5.0 mg/kg PO, read-out: Cmax
[8] = plasma, po, 5 mg/kg, 5 mg/kg oral, read-out: AUC0-∞ (overall exposure following oral doses)
[9] = MM1.S cells, 72 hours treatment, read-out: IC50 in MM1.S
[10] = Myeloma, MM1.S, 72 hours (Table 3), read-out: IC50

Structure (SMILES) | AUC0-∞ ([1]; 1.0 mg/kg IV) [ng·h/mL] | AUC % Extrap ([1]; 1.0 mg/kg IV) [%] | Cl/F obs ([1]; 1.0 mg/kg IV) [mL/min/kg] | Rsq (>0.85) ([1]; 1.0 mg/kg IV) | half-life ([1]; 1.0 mg/kg IV) [h] | AUC % Extrap ([1]; 5.0 mg/kg PO) [%] | Cmax ([1]; 5.0 mg/kg PO) [ng/mL] | Rsq (>0.85) ([1]; 5.0 mg/kg PO) | AUC(0-t) ([1]; plasma, 1.0 mg/kg IV) [ng·h/mL] | Tmax ([1]; plasma, 1.0 mg/kg IV) [h] | half-life [1, 2] [h] | Vd ([1]; plasma, 1.0 mg/kg IV) [L/kg] | AUC(0-t) ([1]; plasma, 5.0 mg/kg PO) [ng·h/mL] | CL/F ([1]; plasma, 5.0 mg/kg PO) [mL/min/kg] | Tmax ([1]; plasma, 5.0 mg/kg PO) [h] | bioavailability ([1]; plasma, 5.0 mg/kg PO) [%] | half-life [1, 3] [h] | Vd/F ([1]; plasma, 5.0 mg/kg PO) [L/kg] | AUC(0-inf) [1, 4] [ng·h/mL] | Cmax [1, 5] [ng/mL] | other results
O=C(NO)c1ccc(Nc2nc3ccccc3n2C2CCCCCC2)cc1 [ID #3, 4-((1-cycloheptyl-1H-benzo[d]imidazol-2-yl)amino)-N-hydroxybenzamide] | 1193.68 | 0.16 | 14 | 0.92 | 2.37 | 0.38 | 348.57 | 1.00 | 1190 | 0.08 | 2.37 | 1.96 | 1640 | 50.5 | 0.25 | 27.6 | 2.99 | 13.1 | 1190 | 830 | AUC(0-inf) [1, 6]: 1650 ng·h/mL; Cmax [1, 7]: 349 ng/mL; AUC(0-inf) [1, 8]: 1650 ng·h/mL; IC50 (MCF7): 3.55 µM; IC50 (KMS-34): 1.36 µM; IC50 (MM1.S cells; [9]): 2.1 µM; IC50 (MM1.S cells; [10]): 2.09 µM; IC50 (SKUT-1B): 6.92 µM; IC50 (H460): 10.5 µM
O=C(NO)c1ccc(Nc2nc3ccccc3n2CC2CCCCC2)cc1 [ID #1, 4-((1-(cyclohexylmethyl)-1H-benzo[d]imidazol-2-yl)amino)-N-hydroxybenzamide] | 1488.05 | 0.25 | 11.5 | 0.97 | 3.70 | 0.75 | 757.43 | 0.99 | 1440 | 0.08 | 3.7 | 1.21 | 3220 | 21 | 0.5 | 53.4 | 3.39 | 6.16 | 1490 | 1290 | AUC(0-inf) [1, 6]: 3970 ng·h/mL; Cmax [1, 7]: 757 ng/mL; AUC(0-inf) [1, 8]: 3970 ng·h/mL; Improvement ID #1 over ID #3 Percent (MCF7; MCF7): 44.79%; Improvement ID #1 over ID #3 fold (MCF7; MCF7): 1.81 fold; IC50 (MCF7): 1.96 µM; Improvement ID #1 over ID #3 Percent (KMS-34; KMS-34): 55.15%; Improvement ID #1 over ID #3 fold (KMS-34; KMS-34): 2.23 fold; IC50 (KMS-34): 0.61 µM; IC50 (MM1.S cells; [9]): 0.5 µM; IC50 (MM1.S cells; [10]): 0.5 µM; Improvement ID #1 over ID #3 Percent (MM1.S cells; Myeloma, MM1.S): 76.08%; Improvement ID #1 over ID #3 fold (MM1.S cells; Myeloma, MM1.S): 4.18 fold; IC50 (SKUT-1B): 2.51 µM; Improvement ID #1 over ID #3 Percent (SKUT-1B): 63.73%; Improvement ID #1 over ID #3 fold (SKUT-1B): 2.76 fold; IC50 (H460): 3.47 µM; Improvement ID #1 over ID #3 Percent (H460; H460): 66.86%; Improvement ID #1 over ID #3 fold (H460; H460): 3.02 fold
